From patent US10590078B2, “Sodium channel blockers” (Daewoong Pharmaceutical Co., Ltd., priority 2015, dated 2020)
Read-outs that look alike come from different tables or passages of the source.

Target: human sodium ion channel 1.7 (hNav1.7) (Homo sapiens, UniProt Q15858)
Assay: Blocking effect against sodium ion channel Nav1.7, IonFlux16 auto patch clamp in hNav1.7 HEK293 cells
Type: cell-based
[1] = hNav1.7 HEK293 cells, inhibition of peak current after 50 seconds treatment, eight concentrations, read-out: IC50

human sodium ion channel 1.7 (hNav1.7), sequence (Q15858 whole entry): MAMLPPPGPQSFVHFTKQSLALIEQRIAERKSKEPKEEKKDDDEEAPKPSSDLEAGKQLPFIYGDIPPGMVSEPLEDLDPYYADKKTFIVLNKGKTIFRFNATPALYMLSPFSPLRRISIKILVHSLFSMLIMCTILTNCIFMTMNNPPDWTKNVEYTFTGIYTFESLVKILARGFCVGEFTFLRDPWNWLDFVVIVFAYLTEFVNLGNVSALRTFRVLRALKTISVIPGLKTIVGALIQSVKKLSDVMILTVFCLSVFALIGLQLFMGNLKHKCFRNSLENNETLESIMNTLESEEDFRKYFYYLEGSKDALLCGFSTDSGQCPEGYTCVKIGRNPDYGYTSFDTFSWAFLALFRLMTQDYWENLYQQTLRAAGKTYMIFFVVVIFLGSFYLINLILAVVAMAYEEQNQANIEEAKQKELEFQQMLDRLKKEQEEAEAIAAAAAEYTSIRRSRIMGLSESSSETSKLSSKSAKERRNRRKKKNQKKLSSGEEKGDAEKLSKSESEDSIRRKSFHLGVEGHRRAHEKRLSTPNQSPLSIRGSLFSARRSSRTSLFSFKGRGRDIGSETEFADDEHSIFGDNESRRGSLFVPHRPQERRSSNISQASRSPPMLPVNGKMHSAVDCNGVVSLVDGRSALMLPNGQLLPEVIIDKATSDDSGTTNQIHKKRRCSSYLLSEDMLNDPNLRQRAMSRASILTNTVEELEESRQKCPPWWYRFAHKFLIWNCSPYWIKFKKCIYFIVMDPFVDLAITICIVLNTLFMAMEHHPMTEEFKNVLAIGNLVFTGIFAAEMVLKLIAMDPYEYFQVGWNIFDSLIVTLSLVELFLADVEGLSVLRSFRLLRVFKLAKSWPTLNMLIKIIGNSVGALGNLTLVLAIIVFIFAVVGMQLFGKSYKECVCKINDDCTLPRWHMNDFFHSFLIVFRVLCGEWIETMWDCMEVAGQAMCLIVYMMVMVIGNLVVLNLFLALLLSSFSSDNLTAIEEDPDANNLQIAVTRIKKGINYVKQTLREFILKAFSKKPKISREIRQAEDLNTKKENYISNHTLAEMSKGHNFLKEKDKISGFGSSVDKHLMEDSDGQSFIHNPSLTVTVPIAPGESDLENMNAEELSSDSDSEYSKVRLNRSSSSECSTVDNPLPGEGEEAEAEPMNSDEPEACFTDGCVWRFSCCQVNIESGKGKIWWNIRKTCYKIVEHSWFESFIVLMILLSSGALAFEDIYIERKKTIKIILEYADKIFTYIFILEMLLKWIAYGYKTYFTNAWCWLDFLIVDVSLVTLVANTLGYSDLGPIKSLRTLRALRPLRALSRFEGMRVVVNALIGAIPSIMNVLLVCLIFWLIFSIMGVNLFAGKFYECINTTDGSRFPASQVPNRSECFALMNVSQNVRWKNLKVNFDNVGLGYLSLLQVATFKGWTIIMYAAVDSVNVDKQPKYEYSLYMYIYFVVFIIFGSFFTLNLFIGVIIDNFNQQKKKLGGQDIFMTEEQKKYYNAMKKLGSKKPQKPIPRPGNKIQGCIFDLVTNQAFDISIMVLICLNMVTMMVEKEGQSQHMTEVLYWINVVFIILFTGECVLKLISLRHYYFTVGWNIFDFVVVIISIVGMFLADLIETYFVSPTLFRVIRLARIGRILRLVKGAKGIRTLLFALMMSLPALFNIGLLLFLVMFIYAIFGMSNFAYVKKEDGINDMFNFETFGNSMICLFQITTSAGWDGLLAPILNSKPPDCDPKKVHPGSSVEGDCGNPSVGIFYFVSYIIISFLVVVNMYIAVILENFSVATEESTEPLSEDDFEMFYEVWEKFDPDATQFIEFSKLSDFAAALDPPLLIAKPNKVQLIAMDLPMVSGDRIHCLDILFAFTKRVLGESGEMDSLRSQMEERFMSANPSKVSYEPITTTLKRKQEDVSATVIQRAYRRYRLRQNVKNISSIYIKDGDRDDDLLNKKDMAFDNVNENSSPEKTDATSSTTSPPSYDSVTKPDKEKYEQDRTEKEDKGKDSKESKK

SMILES | IC50 [1] | IC50
Cn1nccc1-c1ccc2c(c1)c(Cl)nn2-c1cc(F)c(S(=O)(=O)Nc2cscn2)cc1Cl [Example 286, 5-chloro-4-(3-chloro-5-(1-methyl-1H-pyrazol-5-yl)-1H-indazol-1-yl)-2-fluoro-N-(thiazol-4-yl)benzenesulfonamide] | 3000 to 10000 nM | 
Cc1cc(Cl)ccc1-c1ccc2c(c1)c(Cl)nn2-c1cc(F)c(C(=O)NS(C)(=O)=O)cc1Cl [Example 253, 5-chloro-4-(3-chloro-5-(4-chloro-2-methylphenyl)-1H-indazol-1-yl)-2-fluoro-N-(methylsulfonyl)benzamide] | 480 nM | 
CS(=O)(=O)NC(=O)c1cc(Cl)c(-n2cc(-c3ccccc3C(F)(F)F)c3cccnc32)cc1F [Example 216, 5-chloro-2-fluoro-N-(methylsulfonyl)-4-(3-(2-(trifluoromethyl)phenyl)-1H-pyrrolo[2,3-b]pyridin-1-yl)benzamide] | 370 nM | 
Cc1nn(-c2cc(F)c(C(=O)NS(C)(=O)=O)cc2Cl)c2ccc(Cl)cc12 [Example 1, 5-chloro-4-(5-chloro-3-methyl-1H-indazol-1-yl)-2-fluoro-N-(methylsulfonyl)benzamide] | > 10000 nM | 
CS(=O)(=O)NC(=O)c1cc(F)c(-n2nc(-c3cccc(F)c3)c3cc(Cl)ccc32)cc1Cl [Example 114, 2-chloro-4-(5-chloro-3-(3-fluorophenyl)-1H-indazol-1-yl)-5-fluoro-N-(methylsulfonyl)benzamide] | 1440 nM | 
CS(=O)(=O)NC(=O)c1cc(Cl)c(-n2nc(-c3c(F)cccc3Cl)c3cc(Cl)ccc32)cc1F [Example 78, 5-chloro-4-(5-chloro-3-(2-chloro-6-fluorophenyl)-1H-indazol-1-yl)-2-fluoro-N-(methylsulfonyl)benzamide] | 130 nM | 
CS(=O)(=O)NC(=O)c1cc(Cl)c(-n2nc(C#N)c3cc(Br)ccc32)cc1F [Example 22, 4-(5-bromo-3-cyano-1H-indazol-1-yl)-5-chloro-2-fluoro-N-(methylsulfonyl)benzamide] | 966 nM | 
CS(=O)(=O)NC(=O)c1cc(Cl)c(-n2nc(Cl)c3cc(-c4ccccc4F)ccc32)cc1F [Example 234, 5-chloro-4-(3-chloro-5-(2-fluorophenyl)-1H-indazol-1-yl)-2-fluoro-N-(methylsulfonyl)benzamide] | 111 nM | 
CS(=O)(=O)NC(=O)c1cc(Cl)c(-n2nc(Cl)c3cc(OCc4ccccc4F)ccc32)cc1F [Example 37, 5-chloro-4-(3-chloro-5-((2-fluorobenzyl)oxy)-1H-indazol-1-yl)-2-fluoro-N-(methylsulfonyl)benzamide] | 159 nM | 
CS(=O)(=O)NC(=O)c1cc(Cl)c(-n2cc(Cl)c3cc(-c4ccc(F)cc4)cnc32)cc1F [Example 257, 5-chloro-4-(3-chloro-5-(4-fluorophenyl)-1H-pyrrolo[2,3-b]pyridin-1-yl)-2-fluoro-N-(methylsulfonyl)benzamide] | 360 nM | 
CS(=O)(=O)NC(=O)c1cc(Cl)c(-n2nc(Cl)c3cc(-c4cccnc4)ccc32)cc1F [Example 231, 5-chloro-4-(3-chloro-5-(pyridin-3-yl)-1H-indazol-1-yl)-2-fluoro-N-(methylsulfonyl)benzamide] | 3000 to 10000 nM | 
CS(=O)(=O)NC(=O)c1cc(Cl)c(-n2cc(-c3ccc(F)cc3Cl)c3cc(Cl)cnc32)cc1F [Example 197, 5-chloro-4-(5-chloro-3-(2-chloro-4-fluorophenyl)-1H-pyrrolo[2,3-b]pyridin-1-yl)-2-fluoro-N-(methylsulfonyl)benzamide] | 40 nM | 
CS(=O)(=O)NC(=O)c1ccc(-n2nc(-c3ccccc3)c3cc(Cl)ccc32)cc1F [Example 127, 4-(5-chloro-3-phenyl-1H-indazol-1-yl)-2-fluoro-N-(methylsulfonyl)benzamide] | 3940 nM | 
CS(=O)(=O)NC(=O)c1cc(Cl)c(-n2nc(-c3ccc(Cl)cc3F)c3cc(Cl)ccc32)cc1F [Example 66, 5-chloro-4-(5-chloro-3-(4-chloro-2-fluorophenyl)-1H-indazol-1-yl)-2-fluoro-N-(methylsulfonyl)benzamide] | 16 nM | 
CS(=O)(=O)NC(=O)c1ccc(-n2nc(-c3ccc(F)cc3F)c3cc(Cl)ccc32)c(C#N)c1 [Example 105, 4-(5-chloro-3-(2,4-difluorophenyl)-1H-indazol-1-yl)-3-cyano-N-(methylsulfonyl)benzamide] | 957 nM | 
CS(=O)(=O)NC(=O)c1cc(Cl)c(-n2nc(-c3ccc(F)cc3Cl)c3ccccc32)cc1F [Example 175, 5-chloro-4-(3-(2-chloro-4-fluorophenyl)-1H-indazol-1-yl)-2-fluoro-N-(methylsulfonyl)benzamide] | 80 nM | 
Cn1nccc1-c1nn(-c2cc(F)c(S(=O)(=O)Nc3ncns3)cc2Cl)c2ccc(Cl)cc12 [Example 283, 5-chloro-4-(5-chloro-3-(1-methyl-1H-pyrazol-5-yl)-1H-indazol-1-yl)-2-fluoro-N-(1,2,4-thiadiazol-5-yl)benzenesulfonamide] | > 3000 nM | 
CS(=O)(=O)NC(=O)c1cc(Cl)c(-n2nc(Cl)c3ccc(OCc4ccccc4)cc32)cc1F [Example 45, 4-(6-(benzyloxy)-3-chloro-1H-indazol-1-yl)-5-chloro-2-fluoro-N-(methylsulfonyl)benzamide] | 134 nM | 

SMILES | IC50 [1] | IC50
CS(=O)(=O)NC(=O)c1cc(Cl)c(-n2nc(Cl)c3cc(-c4ccccc4C(F)(F)F)ccc32)cc1F [Example 250, 5-chloro-4-(3-chloro-5-(2-(trifluoromethyl)phenyl)-1H-indazol-1-yl)-2-fluoro-N-(methylsulfonyl)benzamide] | 67 nM | 
CS(=O)(=O)NC(=O)c1cc(Cl)c(-n2nc(-c3ccccc3)c3cc(Cl)ccc32)cc1F [Example 48, 5-chloro-4-(5-chloro-3-phenyl-1H-indazol-1-yl)-2-fluoro-N-(methylsulfonyl)benzamide] | 48 nM | 
COc1ccccc1-c1nn(-c2cc(F)c(C(=O)NS(C)(=O)=O)cc2Cl)c2ccc(Cl)cc12 [Example 58, 5-chloro-4-(5-chloro-3-(2-methoxyphenyl)-1H-indazol-1-yl)-2-fluoro-N-(methylsulfonyl)benzamide] | 98 nM | 
CS(=O)(=O)NC(=O)c1ccc(-n2nc(-c3ccccc3C#N)c3cc(Cl)ccc32)c(C#N)c1 [Example 94, 4-(5-chloro-3-(2-cyanophenyl)-1H-indazol-1-yl)-3-cyano-N-(methylsulfonyl)benzamide] | > 10000 nM | 
CS(=O)(=O)NC(=O)c1cc(Cl)c(-n2cc(-c3cccc(F)c3)c3cccnc32)cc1F [Example 214, 5-chloro-2-fluoro-4-(3-(3-fluorophenyl)-1H-pyrrolo[2,3-b]pyridin-1-yl)-N-(methylsulfonyl)benzamide] | 340 nM | 
COc1ccc(-c2nn(-c3cc(F)c(C(=O)NS(C)(=O)=O)cc3Cl)c3ccc(Cl)cc23)cc1 [Example 59, 5-chloro-4-(5-chloro-3-(4-methoxyphenyl)-1H-indazol-1-yl)-2-fluoro-N-(methylsulfonyl)benzamide] | 108 nM | 
CS(=O)(=O)NC(=O)c1cc(Cl)c(-n2nc(-c3ccccc3F)c3cc(F)ccc32)cc1F [Example 143, 5-chloro-2-fluoro-4-(5-fluoro-3-(2-fluorophenyl)-1H-indazol-1-yl)-N-(methylsulfonyl)benzamide] | 120 nM | 
CS(=O)(=O)NC(=O)c1ccc(-n2cc(-c3ccc(F)cc3)c3cc(Cl)ccc32)nc1 [Example 275, 6-(5-chloro-3-(4-fluorophenyl)-1H-indol-1-yl)-N-(methylsulfonyl)nicotinamide] | 1230 nM | 
O=S(=O)(Nc1cscn1)c1cc(Cl)c(-n2nc(-c3ccc(Cl)cc3F)c3cc(Cl)ccc32)cc1F [Example 287, 5-chloro-4-(5-chloro-3-(4-chloro-2-fluorophenyl)-1H-indazol-1-yl)-2-fluoro-N-(thiazol-4-yl)benzenesulfonamide] | 8250 nM | 
Cc1ccc(-c2nn(-c3cc(F)c(C(=O)NS(C)(=O)=O)cc3Cl)c3ccc(F)cc23)cc1 [Example 156, 5-chloro-2-fluoro-4-(5-fluoro-3-(p-tolyl)-1H-indazol-1-yl)-N-(methylsulfonyl)benzamide] | 100 nM | 
CS(=O)(=O)NC(=O)c1cc(Cl)c(-n2nc(Cl)c3cc(OCc4ccc5ccccc5c4)ccc32)cc1F [Example 35, 5-chloro-4-(3-chloro-5-(naphthalen-2-ylmethoxy)-1H-indazol-1-yl)-2-fluoro-N-(methylsulfonyl)benzamide] | 76 nM | 
CS(=O)(=O)NC(=O)c1cc(Cl)c(-n2cc(-c3ccccc3Cl)c3cc(F)cnc32)cc1F [Example 207, 5-chloro-4-(3-(2-chlorophenyl)-5-fluoro-1H-pyrrolo[2,3-b]pyridin-1-yl)-2-fluoro-N-(methylsulfonyl)benzamide] | 140 nM | 
CS(=O)(=O)NC(=O)c1cc(Cl)c(-n2nc(Cl)c3cc(-c4ccccc4C#N)ccc32)cc1F [Example 237, 5-chloro-4-(3-chloro-5-(2-cyanophenyl)-1H-indazol-1-yl)-2-fluoro-N-(methylsulfonyl)benzamide] | > 10000 nM | 
CS(=O)(=O)NC(=O)c1cc(Cl)c(-n2cc(-c3cccc(Cl)c3F)c3cc(F)cnc32)cc1F [Example 211, 5-chloro-4-(3-(3-chloro-2-fluorophenyl)-5-fluoro-1H-pyrrolo[2,3-b]pyridin-1-yl)-2-fluoro-N-(methylsulfonyl)benzamide] |  | 40 nM
CS(=O)(=O)NC(=O)c1cc(Cl)c(-n2cc(-c3ccc(Cl)nc3)c3cc(Cl)ccc32)cc1F [Example 273, 5-chloro-4-(5-chloro-3-(6-chloropyridin-3-yl)-1H-indol-1-yl)-2-fluoro-N-(methylsulfonyl)benzamide] | 180 nM | 
CS(=O)(=O)NC(=O)c1cc(Cl)c(-n2nc(Cl)c3cc(C4CC4)ccc32)cc1F [Example 24, 5-chloro-4-(3-chloro-5-cyclopropyl-1H-indazol-1-yl)-2-fluoro-N-(methylsulfonyl)benzamide] | 280 nM | 
COc1ccc(-c2nn(-c3cc(F)c(C(=O)NS(C)(=O)=O)cc3Cl)c3ccc(F)cc23)cc1 [Example 155, 5-chloro-2-fluoro-4-(5-fluoro-3-(4-methoxyphenyl)-1H-indazol-1-yl)-N-(methylsulfonyl)benzamide] | 110 nM | 
